Reference: paper PMC4891047, “A 20(S)-protopanoxadiol derivative overcomes multi-drug resistance by antagonizing ATP-binding cassette subfamily B member 1 transporter function” (Oncotarget, 2016)
pEC50: −log10 of the molar value. Read-outs that look alike come from different tables or passages of the source.

Tests used:
ABCB1 [1] = molecular target: T1, ABCB1 (Homo sapiens, UniProt P08183); test: biochemical
T1 construct: membrane vesicles (Pgp-Glo assay system)

ABCB1 [2] = molecular target: T1, ABCB1; test: biochemical; remark: listed apart in the source

T1 sequence (P08183 whole entry): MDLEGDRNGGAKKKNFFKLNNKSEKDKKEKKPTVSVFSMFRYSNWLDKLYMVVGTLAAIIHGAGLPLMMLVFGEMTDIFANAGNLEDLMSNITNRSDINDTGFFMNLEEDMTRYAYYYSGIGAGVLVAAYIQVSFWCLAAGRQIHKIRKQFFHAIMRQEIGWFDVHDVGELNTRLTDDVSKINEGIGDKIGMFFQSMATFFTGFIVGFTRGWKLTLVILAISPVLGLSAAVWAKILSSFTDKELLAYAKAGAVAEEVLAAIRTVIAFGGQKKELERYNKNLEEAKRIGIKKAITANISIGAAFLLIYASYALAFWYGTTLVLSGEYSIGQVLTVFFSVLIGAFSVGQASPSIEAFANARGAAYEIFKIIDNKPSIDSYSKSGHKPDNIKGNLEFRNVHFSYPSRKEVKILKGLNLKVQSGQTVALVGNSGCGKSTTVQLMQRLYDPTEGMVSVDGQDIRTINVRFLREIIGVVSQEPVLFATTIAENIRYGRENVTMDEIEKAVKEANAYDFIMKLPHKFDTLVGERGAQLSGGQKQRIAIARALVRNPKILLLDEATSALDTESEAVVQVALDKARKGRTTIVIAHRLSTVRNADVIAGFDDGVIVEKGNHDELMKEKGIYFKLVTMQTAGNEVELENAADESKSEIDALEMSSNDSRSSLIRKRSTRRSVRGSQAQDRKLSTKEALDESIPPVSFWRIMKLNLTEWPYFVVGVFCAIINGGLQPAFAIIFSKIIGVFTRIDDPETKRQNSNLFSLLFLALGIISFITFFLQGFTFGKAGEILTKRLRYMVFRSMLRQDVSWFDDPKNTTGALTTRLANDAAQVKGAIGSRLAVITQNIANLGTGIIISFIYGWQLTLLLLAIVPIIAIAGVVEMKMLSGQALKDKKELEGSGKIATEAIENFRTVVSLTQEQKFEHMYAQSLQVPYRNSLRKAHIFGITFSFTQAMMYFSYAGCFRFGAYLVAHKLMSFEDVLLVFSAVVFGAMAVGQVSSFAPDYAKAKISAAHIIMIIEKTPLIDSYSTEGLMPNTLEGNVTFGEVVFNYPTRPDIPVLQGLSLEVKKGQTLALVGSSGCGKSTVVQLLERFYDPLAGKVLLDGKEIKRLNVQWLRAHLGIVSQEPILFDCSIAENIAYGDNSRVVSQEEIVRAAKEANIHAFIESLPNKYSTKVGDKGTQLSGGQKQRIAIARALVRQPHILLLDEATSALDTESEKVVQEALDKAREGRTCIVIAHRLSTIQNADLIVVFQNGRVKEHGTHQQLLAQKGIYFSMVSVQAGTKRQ

SMILES	pEC50 (ABCB1 [1])	pEC50 (ABCB1 [2])
COc1ccc(CNCCC[C@](C)(O)[C@H]2CC[C@]3(C)[C@@H]2[C@H](O)C[C@@H]2[C@@]4(C)CC[C@H](O)C(C)(C)[C@@H]4CC[C@]23C)cc1 [PPD11]	5.62	
CC1(C)[C@@H](O)CC[C@]2(C)[C@H]3C[C@@H](O)[C@@H]4[C@@H]([C@@](C)(O)CCCNCc5ccccc5)CC[C@@]4(C)[C@]3(C)CC[C@@H]12 [PPD12]		5.82
CC(C)=CCC[C@](C)(O)[C@H]1CC[C@]2(C)[C@@H]1[C@H](O)C[C@@H]1[C@@]3(C)CC[C@H](O)C(C)(C)[C@@H]3CC[C@]12C [PPD, 20(S)-protopanoxadiol]	5.50	
